Several values for one entry are separate records, joined by “and”; a condition that tells them apart may be missing. Equal entries are not always repeated. Structures can show the parent of a compound that is named as a salt.

Test [1] has as its system cells from the thymus of normal BALB/c mice (thymocyte proliferation). Kind of test: comitogen-induced thymocyte proliferation procedure (LAF). Format: cell-based. The settings on record: percent change in counts per minute from non-drug treated controls; for percent change in thymocyte proliferation (counts per minute) versus untreated control at 0.01 µM / percent change in thymocyte proliferation (counts per minute) versus untreated control at 0.1 µM: Mus musculus, 72 h, 72 h culture with PHA and IL-1; for percent change in thymocyte proliferation (counts per minute) versus untreated control at 0.01 µM: read-out: Percentage Inhibition in LAF Assay at 10 nM concentration, Analogs; for percent change in thymocyte proliferation (counts per minute) versus untreated control at 0.1 µM: read-out: Percentage Inhibition in LAF Assay at 100 nM concentration, Analogs. Here is the method: Briefly, cells from the thymus of normal BALB/c mice were cultured for 72 hours with PHA and IL-1 and pulsed with tritiated thymidine during the last six hours. Cells are cultured with and without various concentrations of rapamycin, cyclospofin A, or test compound. Cells are harvested and incorporated; radioactivity is determined. Inhibition of lymphoproliferation is assessed in percent change in counts per minute from non-drug treated controls.

Test [2] deals with pinch skin graft from male BALB/c donors transplanted to male C3H recipients. Put plainly: skin graft assay (survival time of pinch skin graft). As to conditions: intraperitoneally once daily for 6 consecutive days; rejection = 95% area necrosis or suture line off; typically rejected within 6-7 days without immunosuppressive agent. Format: in vivo, mouse (BALB/c donors. The method, then:
The second in vivo test procedure is designed to determine the survival time of pinch skin graft from male BALB/c donors transplanted to male C3H recipients. The method is adapted from Billingham R. E. and Medawar P. B., J. Exp. Biol. 28:385-402, (1951). Briefly, a pinch skin graft from the donor is grafted on the dorsum of the recipient as an allograft and an isograft is used as control in the same region. The recipients are treated with the test compound, intraperitoneally once daily for 6 consecutive days. Untreated recipients serve as rejection control. The graft is monitored daily and observations are recorded until the graft becomes 95% area necrosis or the suture line is off. This is considered as the rejection day. The graft survival time is one day before the rejection day. The mean graft survival time (number of days ±S.D.) of the drug treatment group is compared with the control group.

The test system of test [3] is adjuvant arthritis model, a model for rheumatoid arthritis. The settings on record: in vivo; cited from earlier work.
The conditions of test [4]: alone or in combination with picibanil; cited from earlier work.
Test [5] concerns experimental allergic encephalomyelitis model, a model for multiple sclerosis. The settings on record: in vivo; cited from earlier work.
In test [6] the test system is Candida albicans. As to conditions: particularly against Candida albicans, both in vitro and in vivo; cited from earlier work.
The subject of test [7] is formation of IgE-like antibodies. As to conditions: cited from earlier work.

Consider `CO[C@H]1C[C@@H]2CC[C@@H](C)[C@@](O)(O2)C(=O)C(=O)N2CCCC[C@H]2C(=O)O[C@H]([C@H](C)C[C@@H]2CC[C@@H](OC(=O)Nc3ccccc3)[C@H](OC)C2)CC(=O)[C@H](C)/C=C(\C)[C@@H](OC(=O)CN(C)C)[C@@H](OC)C(=O)[C@H](C)C[C@H](C)/C=C/C=C/C=C/1C` [Example 3, Rapamycin 31-Ester With N,N-dimethylglycine HCl Salt 42-Ester With Phenylcarbamic Acid], for which, in test [1] (10 nM), the percent change in thymocyte proliferation (counts per minute) versus untreated control at 0.01 µM is -14%. Further, the percent change in thymocyte proliferation (counts per minute) versus untreated control at 0.1 µM in test [1] (100 nM) is -82%.
As to `CO[C@H]1C[C@@H]2CC[C@@H](C)[C@@](O)(O2)C(=O)C(=O)N2CCCC[C@H]2C(=O)O[C@H]([C@H](C)C[C@@H]2CC[C@@H](OC(=O)NS(=O)(=O)c3ccccc3)[C@H](OC)C2)CC(=O)[C@H](C)/C=C(\C)[C@@H](OC(=O)CN(C)C)[C@@H](OC)C(=O)[C@H](C)C[C@H](C)/C=C/C=C/C=C/1C` [Example 5, Rapamycin 31-Ester With N,N-dimethylglycine HCl Salt 42-Ester With Phenylsulfonyl Carbamic Acid], in test [2], the “Skin Graft Assay, Analogs (mean graft survival time, days ± SD)” value was 10.00 ± 0.57 days. The percent change in thymocyte proliferation (counts per minute) versus untreated control at 0.01 µM in test [1] (10 nM) is 1%. For the same compound, the percent change in thymocyte proliferation (counts per minute) versus untreated control at 0.1 µM in test [1] (100 nM) was -35%.
As for `CO[C@H]1C[C@@H]2CC[C@@H](C)[C@@](O)(O2)C(=O)C(=O)N2CCCC[C@H]2C(=O)O[C@H]([C@H](C)C[C@@H]2CC[C@@H](OS(=O)(=O)c3ccc(C)cc3)[C@H](OC)C2)CC(=O)[C@H](C)/C=C(\C)[C@@H](OC(=O)CN(C)C)[C@@H](OC)C(=O)[C@H](C)C[C@H](C)/C=C/C=C/C=C/1C` [Example 1, Rapamycin 31-Ester With N,N-dimethylglycine HCl Salt 42-Ester With p-toluenesulfonic Acid], the percent change in thymocyte proliferation (counts per minute) versus untreated control at 0.01 µM in test [1] (10 nM) was -6%. In addition, the percent change in thymocyte proliferation (counts per minute) versus untreated control at 0.1 µM in test [1] (100 nM) is -74%.
`CO[C@H]1C[C@@H]2CC[C@@H](C)[C@@](O)(O2)C(=O)C(=O)N2CCCC[C@H]2C(=O)O[C@H]([C@H](C)C[C@@H]2CC[C@@H](O)[C@H](OC)C2)CC(=O)[C@H](C)/C=C(\C)[C@@H](O)[C@@H](OC)C(=O)[C@H](C)C[C@H](C)/C=C/C=C/C=C/1C` [Rapamycin]: the “effect in the adjuvant arthritis model” value in test [3] is “effective”. Further, in test [4], the antitumor activity entry is listed as “antitumor activity”. Further, the “Percentage Inhibition in LAF Assay at 10 nM concentration, Rapamycin” value in test [1] (10 nM, rapamycin comparator) was -85% and -89%. Moreover, the “Percentage Inhibition in LAF Assay at 100 nM concentration, Rapamycin” value in test [1] (100 nM, rapamycin comparator, 0.1 µM) is -97% and -96% and -94% and -95%. Also, the “effect in the experimental allergic encephalomyelitis model” value in test [5] was “effective”. The antifungal activity result in test [6] is “antifungal activity”. Moreover, the “inhibition of the formation of IgE-like antibodies” value in test [7] is “effectively inhibited”.
Consider `CO[C@H]1C[C@@H]2CC[C@@H](C)[C@@](O)(O2)C(=O)C(=O)N2CCCC[C@H]2C(=O)O[C@H]([C@H](C)C[C@@H]2CC[C@@H](OC(C)=O)[C@H](OC)C2)CC(=O)[C@H](C)/C=C(\C)[C@@H](OC(=O)CN(C)C)[C@@H](OC)C(=O)[C@H](C)C[C@H](C)/C=C/C=C/C=C/1C` [Example 2, Rapamycin 31-Ester With N,N-dimethylglycine HCl Salt 42-Ester With Acetic Acid], for which, in test [1] (10 nM), the percent change in thymocyte proliferation (counts per minute) versus untreated control at 0.01 µM was -59%. For the same compound, in test [1] (100 nM), the percent change in thymocyte proliferation (counts per minute) versus untreated control at 0.1 µM was -96%.
With `CO[C@H]1C[C@@H]2CC[C@@H](C)[C@@](O)(O2)C(=O)C(=O)N2CCCC[C@H]2C(=O)O[C@H]([C@H](C)C[C@@H]2CC[C@@H](OC(=O)Nc3ccc(F)cc3)[C@H](OC)C2)CC(=O)[C@H](C)/C=C(\C)[C@@H](OC(=O)CN(C)C)[C@@H](OC)C(=O)[C@H](C)C[C@H](C)/C=C/C=C/C=C/1C` [Example 4, Rapamycin 31-Ester With N,N-dimethylglycine HCl Salt 41-Ester With 4-fluorophenyl Carbamic Acid], the “Skin Graft Assay, Analogs (mean graft survival time, days ± SD)” value in test [2] amounted to 8.17 ± 0.41 days. For the same compound, in test [1] (10 nM), the percent change in thymocyte proliferation (counts per minute) versus untreated control at 0.01 µM is -38%. The percent change in thymocyte proliferation (counts per minute) versus untreated control at 0.1 µM in test [1] (100 nM) was -94%.
Regarding `CO[C@H]1C[C@@H]2CC[C@@H](C)[C@@](O)(O2)C(=O)C(=O)N2CCCC[C@H]2C(=O)O[C@H]([C@H](C)C[C@@H]2CC[C@@H](OS(=O)(=O)c3cccc4cccnc34)[C@H](OC)C2)CC(=O)[C@H](C)/C=C(\C)[C@@H](OC(=O)CN(C)C)[C@@H](OC)C(=O)[C@H](C)C[C@H](C)/C=C/C=C/C=C/1C` [Example 7, Rapamycin 31-Ester With N,N-dimethylglycine 42-Ester With 8-quinolinesulfonic Acid], the “Skin Graft Assay, Analogs (mean graft survival time, days ± SD)” value in test [2] was determined as 9.33 ± 1.22 days. Moreover, the percent change in thymocyte proliferation (counts per minute) versus untreated control at 0.01 µM in test [1] (10 nM) is -62%. Also, the percent change in thymocyte proliferation (counts per minute) versus untreated control at 0.1 µM in test [1] (100 nM) was -94%.
For the compound `CO[C@H]1C[C@@H]2CC[C@@H](C)[C@@](O)(O2)C(=O)C(=O)N2CCCC[C@H]2C(=O)O[C@H]([C@H](C)C[C@@H]2CC[C@@H](OS(=O)(=O)c3cccc4c(N(C)C)cccc34)[C@H](OC)C2)CC(=O)[C@H](C)/C=C(\C)[C@@H](OC(=O)CN(C)C)[C@@H](OC)C(=O)[C@H](C)C[C@H](C)/C=C/C=C/C=C/1C` [Example 8, Rapamycin 31-Ester With N,N-dimethylglycine 42-Ester With 5-(dimethylamino)naphthalene-1-sulfonic Acid], the percent change in thymocyte proliferation (counts per minute) versus untreated control at 0.01 µM in test [1] (10 nM) stood at 13%. Also, the percent change in thymocyte proliferation (counts per minute) versus untreated control at 0.1 µM in test [1] (100 nM) is -54%.
For `CO[C@H]1C[C@@H]2CC[C@@H](C)[C@@](O)(O2)C(=O)C(=O)N2CCCC[C@H]2C(=O)O[C@H]([C@H](C)C[C@@H]2CC[C@@H](O)[C@H](OC)C2)CC(=O)[C@H](C)/C=C(\C)[C@@H](OC(=O)CN(C)C)[C@@H](OC)C(O)[C@H](C)C[C@H](C)/C=C/C=C/C=C/1C` (stereo partly drawn) [Example 6, 33-Deoxy-33-hydroxyrapamycin 31-Ester With N,N-dimethylglycine HCl Salt], in test [2], the “Skin Graft Assay, Analogs (mean graft survival time, days ± SD)” value amounted to 9.50 ± 1.22 days. The percent change in thymocyte proliferation (counts per minute) versus untreated control at 0.01 µM in test [1] (10 nM) is -13%. Moreover, in test [1] (100 nM), the percent change in thymocyte proliferation (counts per minute) versus untreated control at 0.1 µM is -76%.

The record behind these values is US5349060A, “Rapamycin 31-ester with N,N-dimethylglycine derivatives useful as immunosuppressive agents” (American Home Products Corporation, priority 1993, dated 1994).
